Measured values from patent US11292799B2, “Substituted azetidine dihydrothienopyrimidines and their use as phosphodiesterase inhibitors” (UNION therapeutics A/S, priority 2017, dated 2022).

Columns and labels:
[1] = system: TNF-α release, human peripheral blood mononuclear cells (PBMC); test: TNF-α release in LPS-stimulated PBMC; type: cell-based; details: lipopolysaccharide stimulation for 18 hours, read-out: TNF-α IC50 range
Experimental: Human peripheral blood mononuclear cells (PBMC) were isolated from buffy coats. The blood is mixed with saline at a ratio of 1:1, and the PBMC were isolated using Lymphoprep Tubes™ (Nycomed, Norway). The PBMC were suspended in RPMI1640 with 0.5% human serum albumin, pen/strep and 2 mM L-glutamine at a concentration of 5×105 c/ml. The cells were pre-incubated for 30 minutes with the test compounds in 96 well tissue culture plates and stimulated for 18 hours with lipopolysaccharide […] (Sigma). TNF-α concentration in the supernatants was measured using homogeneous time-resolved fluorescence resonance (TR-FRET). The assay is quantified by measuring fluorescence at 665 nm (proportional to TNF-α concentration) and 620 nm (control).
Results were expressed as IC50 values calculated from inhibition curves using as positive controls the secretion in LPS stimulated wells and as negative controls the secretion in unstimulated cells.

[2] = molecular target: human PDE4D catalytic domain (Homo sapiens (Human), UniProt Q08499); test: PDE4 assay (TR-FRET, cAMP cleavage); type: biochemical; details: read-out: PDE4 IC50 range
human PDE4D catalytic domain, sequence (Q08499 380-740 limits assumed): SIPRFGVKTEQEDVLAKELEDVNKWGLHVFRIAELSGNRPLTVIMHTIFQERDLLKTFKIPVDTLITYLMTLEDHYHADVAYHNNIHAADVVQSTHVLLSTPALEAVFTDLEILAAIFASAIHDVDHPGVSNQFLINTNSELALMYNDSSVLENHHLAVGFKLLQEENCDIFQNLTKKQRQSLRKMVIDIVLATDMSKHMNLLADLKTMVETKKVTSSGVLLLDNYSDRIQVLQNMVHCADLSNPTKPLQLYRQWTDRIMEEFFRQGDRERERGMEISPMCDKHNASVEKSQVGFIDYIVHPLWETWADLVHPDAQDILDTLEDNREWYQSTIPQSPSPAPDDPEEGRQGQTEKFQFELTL
Experimental: The human PDE4D catalytic domain (UniProt no. Q08499 [[…]]) was incubated with a mixture of non-labelled cAMP (cyclic adenosine monophosphate) and fluorescein amidite (FAM) conjugated cAMP and titrated test or reference compound. Following brief incubation the enzymatic reaction was stopped by addition of binding buffer containing nanoparticles with immobilized trivalent metal ions capable of binding 1) AMP phospho groups and 2) terbium (Tb) donor fluorophores. Subsequent excitation of the Tb donor triggers time-resolved FRET to adjacent FAM acceptor molecules resulting in light emission. In the presence of a PDE4 inhibitor, AMP generation was reduced resulting in a lower fluorescence signal. The cAMP phosphodiester is not bound by the detection system.
The results were calculated as the molar concentrations resulting in 50% inhibition of the substrate cleavage compared to controls samples, and are expressed as IC50 (nM).

SMILES | IC50 [1] [nM] | IC50 [2] [nM]
[O-][S+]1CCc2nc(N3CC(c4ccccc4)C3)nc(NC3CCOCC3)c21 (stereo in doubt) [Example 1, (R)-2-(3-Phenylazetidin-1-yl)-4-((tetrahydro-2H-pyran-4-yl)amino)-6,7-dihydrothieno[3,2-d]pyrimidine 5-oxide] | < 10 | < 10
[O-][S+]1CCc2nc(N3CC(Oc4ccccc4)C3)nc(NC3CCOCC3)c21 (stereo in doubt) [Example 2, (R)-2-(3-Phenoxyazetidin-1-yl)-4-((tetrahydro-2H-pyran-4-yl)amino)-6,7-dihydrothieno[3,2-d]pyrimidine 5-oxide] | < 10 | < 10
[O-][S+]1CCc2nc(N3CC(Oc4ccc(F)cc4)C3)nc(NC3CCOCC3)c21 (stereo in doubt) [Example 3, (R)-2-(3-(4-Fluorophenoxy)azetidin-1-yl)-4-((tetrahydro-2H-pyran-4-yl)amino)-6,7-dihydrothieno[3,2-d]pyrimidine 5-oxide] | < 10 | < 10
[O-][S+]1CCc2nc(N3CC(c4ccc(F)cc4)C3)nc(NC34CC(C3)C4)c21 (stereo in doubt) [Example 9, (R)-4-(Bicyclo[1.1.1]pentan-1-ylamino)-2-(3-(4-fluorophenyl)azetidin-1-yl)-6,7-dihydrothieno[3,2-d]pyrimidine 5-oxide] | < 10 | < 10
[O-][S+]1CCc2nc(N3CC(Oc4ccc(F)cc4)C3)nc(NC34CC(C3)C4)c21 (stereo in doubt) [Example 10, (R)-4-(Bicyclo[1.1.1]pentan-1-ylamino)-2-(3-(4-fluorophenoxy)azetidin-1-yl)-6,7-dihydrothieno[3,2-d]pyrimidine 5-oxide] | < 10 | < 10
[O-][S+]1CCc2nc(N3CC(c4ccccc4)C3)nc(NC34CC(C3)C4)c21 (stereo in doubt) [Example 11, (R)-4-(Bicyclo[1.1.1]pentan-1-ylamino)-2-(3-phenylazetidin-1-yl)-6,7-dihydrothieno[3,2-d]pyrimidine 5-oxide] | < 10 | < 10
[O-][S+]1CCc2nc(N3CC(c4ccccn4)C3)nc(NC34CC(C3)C4)c21 (stereo in doubt) [Example 12, (R)-4-(Bicyclo[1.1.1]pentan-1-ylamino)-2-(3-(pyridin-2-yl)azetidin-1-yl)-6,7-dihydrothieno[3,2-d]pyrimidine 5-oxide] | 10 to 50 | 10 to 50
[O-][S+]1CCc2nc(N3CC(c4cccc(F)c4)C3)nc(NC34CC(C3)C4)c21 (stereo in doubt) [Example 13, (R)-4-(Bicyclo[1.1.1]pentan-1-ylamino)-2-(3-(3-fluorophenyl)azetidin-1-yl)-6,7-dihydrothieno[3,2-d]pyrimidine 5-oxide] | < 10 | < 10
[O-][S+]1CCc2nc(N3CC(Oc4cccnc4)C3)nc(NC34CC(C3)C4)c21 (stereo in doubt) [Example 14, (R)-4-(Bicyclo[1.1.1]pentan-1-ylamino)-2-(3-(pyridin-3-yloxy)azetidin-1-yl)-6,7-dihydrothieno[3,2-d]pyrimidine 5-oxide] | 10 to 50 | < 10
O=S1(=O)CCC(Nc2nc(N3CC(c4ccccc4)C3)nc3c2[S+]([O-])CC3)CC1 (stereo in doubt) [Example 17, (5R)—N-(1,1-Dioxothian-4-yl)-5-oxido-2-(3-phenylazetidin-1-yl)-6,7-dihydrothieno[3,2-d]pyrimidin-4-yl-amine] | < 10 | 
O=S1(=O)CC(Nc2nc(N3CC(c4ccccc4)C3)nc3c2[S@+]([O-])CC3)C1 [Example 4, (R)-3-((5-Oxido-2-(3-phenylazetidin-1-yl)-6,7-dihydrothieno[3,2-d]pyrimidin-4-yl)amino)thietane 1,1-dioxide] | 10 to 50 | 
COC(=O)N1CC[C@H](Nc2nc(N3CC(c4ccccc4)C3)nc3c2[S@+]([O-])CC3)C1 [Example 5, Methyl (3S)-3-(((5R)-5-oxido-2-(3-phenylazetidin-1-yl)-6,7-dihydrothieno[3,2-d]pyrimidin-4-yl)amino)pyrrolidine-1-carboxylate] | 10 to 50 | 10 to 50
COC(=O)N1CC[C@@H](Nc2nc(N3CC(c4ccccc4)C3)nc3c2[S@+]([O-])CC3)C1 [Example 6, Methyl (3R)-3-(((5R)-5-Oxido-2-(3-phenylazetidin-1-yl)-6,7-dihydrothieno[3,2-d]pyrimidin-4-yl)amino)pyrrolidine-1-carboxylate] | < 10 | < 10
COC(=O)N1CCC[C@@H](Nc2nc(N3CC(Oc4ccc(F)cc4)C3)nc3c2[S@+]([O-])CC3)C1 [Example 7, Methyl (3R)-3-(((5R)-2-(3-(4-Fluorophenoxy)azetidin-1-yl)-5-oxido-6,7-dihydrothieno[3,2-d]pyrimidin-4-yl)amino)piperidine-1-carboxylate] | < 10 | < 10
COC(=O)N1CCC[C@H](Nc2nc(N3CC(Oc4ccc(F)cc4)C3)nc3c2[S@+]([O-])CC3)C1 [Example 8, Methyl (3S)-3-(((5R)-2-(3-(4-Fluorophenoxy)azetidin-1-yl)-5-oxido-6,7-dihydrothieno[3,2-d]pyrimidin-4-yl)amino)piperidine-1-carboxylate] | < 10 | < 10
CC1(Nc2nc(N3CC(c4ccccn4)C3)nc3c2[S@+]([O-])CC3)CCC1 [Example 15, (R)-4-((1-Methylcyclobutyl)amino)-2-(3-(pyridin-2-yl)azetidin-1-yl)-6,7-dihydrothieno[3,2-d]pyrimidine 5-oxide] | < 10 | < 10
CC1(Nc2nc(N3CC(c4cccnc4)C3)nc3c2[S@+]([O-])CC3)CCC1 [Example 16, (R)-4-((1-Methylcyclobutyl)amino)-2-(3-(pyridin-3-yl)azetidin-1-yl)-6,7-dihydrothieno[3,2-d]pyrimidine 5-oxide] | 10 to 50 | 10 to 50
